{"source": "PubChem BioAssay AID1259408", "about": "(Genetic Toxicology Data Bank (GENE-TOX), 2018)", "system": "GENE-TOX genotoxicity assays, various organisms and cells", "test": "GENE-TOX mutagenicity studies", "settings": "for call: Assay Type: In vivo carcinogenicity studies", "key": {"[1]": {"settings": "Species/Cell Type: Nonhuman, Assay Code: CCG+, Evaluation Type: Evaluation A (Pre-1980)"}, "[2]": {"settings": "Species/Cell Type: Escherichia coli polA (W3119 vs P3478), Assay Type: Rec-assay, DNA effects (bacterial DNA repair), Assay Code: RE1-, Evaluation Type: Evaluation A (Pre-1980)"}}, "note": "Calls of active or inactive are those of the source. The rule behind the calls is not given here.", "data": [{"compound": "C[C@]12CC[C@@H]3c4ccc(O)cc4CC[C@H]3[C@@H]1CCC2=O", "values": [{"measurement": "call", "setting": "[1]", "result": "active; positive"}]}, {"compound": "O=C1c2ccccc2C(=O)c2c(O)c(S(=O)(=O)O)cc(O)c21", "values": [{"measurement": "mutagenic call", "setting": "Species/Cell Type: Salmonella typhimurium (one or more of the five standard strains: TA98, TA100, TA1535, TA1537, and TA1538), Assay Type: Histidine reverse gene mutation, Ames assay, Assay Code: SAL+, Evaluation Type: Evaluation A (Pre-1980)", "result": "active; positive"}]}, {"compound": "OCc1ccccc1", "values": [{"measurement": "mutagenic call", "setting": "[2]", "result": "inactive; negative"}]}, {"compound": "O=c1[nH]c(=O)n([C@H]2C[C@H](O)[C@@H](CO)O2)cc1/C=C/I", "values": [{"measurement": "mutagenic call", "setting": "Species/Cell Type: Human, Assay Type: Sister-chromatid exchange (SCE) in vitro, Assay Code: SC1+D, Dose Response: With dose response, Evaluation Type: Evaluation B (Post-1980)", "result": "active; positive"}]}, {"compound": "O=C(OCC1=CCN2CC[C@@H](OC(=O)c3ccc([N+](=O)[O-])cc3)[C@@H]12)c1ccc([N+](=O)[O-])cc1", "values": [{"measurement": "mutagenic call", "setting": "Species/Cell Type: Allium cepa, Assay Type: Chromosome aberrations, Assay Code: ALC+, Evaluation Type: Evaluation A (Pre-1980)", "result": "active; positive"}]}, {"compound": "Nc1nc(N)c2cc(S(=O)(=O)c3ccc4ccccc4c3)ccc2n1", "values": [{"measurement": "mutagenic call", "setting": "Species/Cell Type: Salmonella typhimurium (one or more of the five standard strains: TA98, TA100, TA1535, TA1537, and TA1538), Assay Type: Histidine reverse gene mutation, Ames assay, Assay Code: SALT, Evaluation Type: Evaluation A (Pre-1980)", "result": "no conclusion"}]}, {"compound": "Cc1c2c(c(CO)c3c1ccc1ccccc13)C=C[C@H](O)[C@H]2O", "values": [{"measurement": "mutagenic call", "setting": "Species/Cell Type: Chinese hamster lung (V79) cells, Assay Type: Forward gene mutation at the HPRT or ouabain locus, Assay Code: V79-*, Activation: With metabolic activation, Evaluation Type: Evaluation A (Pre-1980)", "result": "inactive; negative"}]}, {"compound": "Oc1ccc2c(cc3ccc4cccc5ccc2c3c45)c1O", "values": [{"measurement": "mutagenic call", "setting": "Species/Cell Type: Mouse prostate cells, Assay Type: Cell transformation, Assay Code: CTM+D, Dose Response: With dose response, Evaluation Type: Evaluation A (Pre-1980)", "result": "active; positive"}, {"measurement": "mutagenic call", "setting": "Species/Cell Type: Syrian hamster embryo (SHE) cells, Assay Type: Cell transformation, clonal assay, Assay Code: CTC+, Evaluation Type: Evaluation A (Pre-1980)", "result": "active; positive"}]}, {"compound": "CCC(=O)O", "values": [{"measurement": "mutagenic call", "setting": "Species/Cell Type: Mammalian polychromatic erythrocytes, Assay Type: Micronucleus test, chromosome aberrations, Assay Code: MNT-, Evaluation Type: Evaluation B (Post-1980)", "result": "inactive; negative"}]}, {"compound": "Nc1ccc(S(N)(=O)=O)cc1", "values": [{"measurement": "mutagenic call", "setting": "Species/Cell Type: Aspergillus nidulans, Assay Type: Aneuploidy, chromosome aberrations, Assay Code: ASN-, Evaluation Type: Evaluation A (Pre-1980)", "result": "inactive; negative"}, {"measurement": "mutagenic call", "setting": "Species/Cell Type: Aspergillus nidulans, Assay Type: Mitotic recombination, Assay Code: ASG+, Evaluation Type: Evaluation A (Pre-1980)", "result": "active; positive"}, {"measurement": "mutagenic call", "setting": "Species/Cell Type: Neurospora crassa, Assay Type: Aneuploidy, chromosome aberrations, Assay Code: NEN-, Evaluation Type: Evaluation A (Pre-1980)", "result": "inactive; negative"}, {"measurement": "call", "setting": "Species/Cell Type: Nonhuman, Assay Code: CCGT, Evaluation Type: Evaluation A (Pre-1980)", "result": "no conclusion"}]}, {"compound": "CC(=O)C=O", "values": [{"measurement": "mutagenic call", "setting": "Species/Cell Type: Nonhuman, Assay Type: Sister-chromatid exchange (SCE) in vitro, Assay Code: SC2+D, Dose Response: With dose response, Evaluation Type: Evaluation B (Post-1980)", "result": "active; positive"}]}, {"compound": "CCn1c2ccccc2c2cc(N)ccc21", "values": [{"measurement": "call", "setting": "[1]", "result": "active; positive"}]}, {"compound": "CCCCC(=O)N(C)N=O", "values": [{"measurement": "mutagenic call", "setting": "Species/Cell Type: Saccharomyces cerevisiae, Assay Type: Reverse gene mutation, Assay Code: YER+, Evaluation Type: Evaluation A (Pre-1980)", "result": "active; positive"}]}, {"compound": "C=CCOC(=O)CC(C)C", "values": [{"measurement": "call", "setting": "[1]", "result": "active; positive"}]}, {"compound": "CC1=NN(c2ccccc2)C(=O)C1", "values": [{"measurement": "call", "setting": "Species/Cell Type: Nonhuman, Assay Code: CCG-L, Evaluation Type: Evaluation A (Pre-1980)", "result": "inactive; negative"}]}, {"compound": "COC[CH2][Hg][Cl]", "values": [{"measurement": "mutagenic call", "setting": "Species/Cell Type: Drosophila melanogaster, Assay Type: Aneuploidy, sex chromosome gain, chromosome aberrations, Assay Code: DAG-F-M, Evaluation Type: Evaluation A (Pre-1980)", "result": "inactive; negative"}, {"measurement": "mutagenic call", "setting": "Species/Cell Type: Drosophila melanogaster, Assay Type: Aneuploidy, whole sex chromosome loss, chromosome aberrations, Assay Code: DAC-M-F, Evaluation Type: Evaluation A (Pre-1980)", "result": "inactive; negative"}]}, {"compound": "CCN(CC)N=O", "values": [{"measurement": "mutagenic call", "setting": "Species/Cell Type: Chinese hamster lung (V79) cells, Assay Type: Forward gene mutation at the HPRT or ouabain locus, Assay Code: V79+, Evaluation Type: Evaluation A (Pre-1980)", "result": "active; positive"}, {"measurement": "mutagenic call", "setting": "Species/Cell Type: Chinese hamster ovary (CHO) cells, Assay Type: Forward gene mutation at the HPRT locus, Assay Code: CHO+*, Activation: With metabolic activation, Evaluation Type: Evaluation B (Post-1980)", "result": "active; positive"}, {"measurement": "mutagenic call", "setting": "Species/Cell Type: Drosophila melanogaster, Assay Type: Sex-linked recessive lethal gene mutation, Assay Code: SRL+, Evaluation Type: Evaluation A (Pre-1980)", "result": "active; positive"}, {"measurement": "mutagenic call", "setting": "Species/Cell Type: Drosophila melanogaster, Sex: Male, Assay Type: Heritable translocation test, chromosome aberrations, Assay Code: DHTT, Evaluation Type: Evaluation A (Pre-1980)", "result": "no conclusion"}, {"measurement": "mutagenic call", "setting": "Species/Cell Type: Escherichia coli polA (W3110 vs P3478), Assay Type: Rec-assay, DNA effects (bacterial DNA repair), Assay Code: RE2+, Evaluation Type: Evaluation A (Pre-1980)", "result": "active; positive"}, {"measurement": "mutagenic call", "setting": "[2]", "result": "inactive; negative"}, {"measurement": "mutagenic call", "setting": "Species/Cell Type: Fischer rat embryo (RLV/1706) cells, Assay Type: Cell transformation, viral enhanced, Assay Code: CTR+, Evaluation Type: Evaluation A (Pre-1980)", "result": "active; positive"}, {"measurement": "mutagenic call", "setting": "Species/Cell Type: Human diploid fibroblasts, Assay Type: Unscheduled DNA synthesis (UDS) in vitro, DNA effects, Assay Code: UDHT, Evaluation Type: Evaluation A (Pre-1980)", "result": "no conclusion"}, {"measurement": "mutagenic call", "setting": "Species/Cell Type: Human lymphocytes, Assay Type: Sister-chromatid exchange (SCE) in vitro, Assay Code: SCL+D*, Activation: With metabolic activation, Dose Response: With dose response, Evaluation Type: Evaluation B (Post-1980)", "result": "active; positive"}, {"measurement": "mutagenic call", "setting": "Species/Cell Type: Human lymphocytes, Assay Type: Sister-chromatid exchange (SCE) in vitro, Assay Code: SCL-, Evaluation Type: Evaluation A (Pre-1980)", "result": "inactive; negative"}, {"measurement": "mutagenic call", "setting": "Species/Cell Type: Human, Assay Type: Sister-chromatid exchange (SCE) in vitro, Assay Code: SC1+D*, Activation: With metabolic activation, Dose Response: With dose response, Evaluation Type: Evaluation B (Post-1980)", "result": "active; positive"}, {"measurement": "mutagenic call", "setting": "Species/Cell Type: Human, Assay Type: Sister-chromatid exchange (SCE) in vitro, Assay Code: SC1-, Evaluation Type: Evaluation A (Pre-1980)", "result": "inactive; negative"}, {"measurement": "mutagenic call", "setting": "Species/Cell Type: Mammalian polychromatic erythrocytes, Assay Type: Micronucleus test, chromosome aberrations, Assay Code: MNTT, Evaluation Type: Evaluation A (Pre-1980)", "result": "no conclusion"}, {"measurement": "mutagenic call", "setting": "Species/Cell Type: Mouse germ cells, Sex: Male, Assay Type: Unscheduled DNA synthesis (UDS) in vivo, DNA effects, Assay Code: UDT-, Evaluation Type: Evaluation A (Pre-1980)", "result": "inactive; negative"}, {"measurement": "mutagenic call", "setting": "Species/Cell Type: Mouse lymphoma (L5178Y) cells, Assay Type: Forward gene mutation at the thymidine kinase (TK) locus, chromosome aberrations, Assay Code: L51+*, Activation: With metabolic activation, Evaluation Type: Evaluation A (Pre-1980)", "result": "active; positive"}, {"measurement": "mutagenic call", "setting": "Species/Cell Type: Mouse, Sex: Female, Assay Type: Spot test, gene mutation, Assay Code: MST-, Evaluation Type: Evaluation A (Pre-1980)", "result": "inactive; negative"}, {"measurement": "mutagenic call", "setting": "Species/Cell Type: Mouse, Sex: Male, Assay Type: Specific locus test, gene mutation, Assay Code: SLT-, Evaluation Type: Evaluation A (Pre-1980)", "result": "inactive; negative"}, {"measurement": "mutagenic call", "setting": "Species/Cell Type: Neurospora crassa, Assay Type: Forward gene mutation, Assay Code: NEF+, Evaluation Type: Evaluation A (Pre-1980)", "result": "active; positive"}, {"measurement": "mutagenic call", "setting": "Species/Cell Type: Neurospora crassa, Assay Type: Reverse gene mutation, Assay Code: NER+, Evaluation Type: Evaluation A (Pre-1980)", "result": "active; positive"}, {"measurement": "mutagenic call", "setting": "Species/Cell Type: Nonhuman, Assay Type: Chromosome aberrations in vitro, Assay Code: CY&+*, Activation: With metabolic activation, Evaluation Type: Evaluation A (Pre-1980)", "result": "active; positive"}, {"measurement": "call", "setting": "[1]", "result": "active; positive"}, {"measurement": "mutagenic call", "setting": "Species/Cell Type: Nonhuman, Assay Type: Sister-chromatid exchange (SCE) in vitro, Assay Code: SC2+D, Dose Response: With dose response, Evaluation Type: Evaluation A (Pre-1980)", "result": "active; positive"}, {"measurement": "mutagenic call", "setting": "Species/Cell Type: Nonhuman, Assay Type: Sister-chromatid exchange (SCE) in vivo, Assay Code: SC3+, Evaluation Type: Evaluation B (Post-1980)", "result": "active; positive"}, {"measurement": "mutagenic call", "setting": "Species/Cell Type: Nonhuman, Assay Type: Sister-chromatid exchange (SCE) in vivo, Assay Code: SC3+D, Dose Response: With dose response, Evaluation Type: Evaluation A (Pre-1980)", "result": "active; positive"}, {"measurement": "mutagenic call", "setting": "Species/Cell Type: Rat primary hepatocytes, Assay Type: Unscheduled DNA synthesis (UDS) in vitro, DNA effects, Assay Code: UDP+, Evaluation Type: Evaluation A (Pre-1980)", "result": "active; positive"}, {"measurement": "mutagenic call", "setting": "Species/Cell Type: Rodents, Sex: Male, Assay Type: Dominant lethal test, Assay Code: DLT-, Evaluation Type: Evaluation A (Pre-1980)", "result": "inactive; negative"}, {"measurement": "mutagenic call", "setting": "Species/Cell Type: Saccharomyces cerevisiae, Assay Type: Forward gene mutation, Assay Code: YEF+*, Activation: With metabolic activation, Evaluation Type: Evaluation A (Pre-1980)", "result": "active; positive"}, {"measurement": "mutagenic call", "setting": "Species/Cell Type: Saccharomyces cerevisiae, Assay Type: Mitotic recombination or gene conversion, Assay Code: YEH+, Evaluation Type: Evaluation A (Pre-1980)", "result": "active; positive"}, {"measurement": "mutagenic call", "setting": "Species/Cell Type: Salmonella typhimurium (one or more of the five standard strains: TA98, TA100, TA1535, TA1537, and TA1538), Assay Type: Histidine reverse gene mutation, Ames assay, Assay Code: SAL+*, Activation: With metabolic activation, Evaluation Type: Evaluation A (Pre-1980)", "result": "active; positive"}, {"measurement": "mutagenic call", "setting": "Species/Cell Type: Salmonella typhimurium, Escherichia coli, Serratia marcesens, Chinese hamster lung (V79) cells, Assay Type: Forward and reverse gene mutation, host-mediated assay, Assay Code: HM1+, Evaluation Type: Evaluation A (Pre-1980)", "result": "active; positive"}, {"measurement": "mutagenic call", "setting": "Species/Cell Type: Syrian hamster embryo (SHE) cells, Assay Type: Cell transformation, clonal assay, Assay Code: CTC+*, Activation: With metabolic activation, Evaluation Type: Evaluation A (Pre-1980)", "result": "active; positive"}]}]}
